Test results: patent US20150164895A1, “DETERMINING SENSITIVITY OF CELLS TO B-RAF INHIBITOR TREATMENT BY DETECTING KRAS MUTATION AND RTK EXPRESSION LEVELS” (GENENTECH, INC., priority 2009, published 2015)
Values joined by “and” are separate entries in the source; they are usually repeats but may differ in a detail not shown here. Equal values may be shown once.

System: lung tumor xenografts
Test: Experiment H327: growth in lung tumor xenografts after dosing with B-RAF inhibitor
Assay type: in vivo, mice
Details: H327-2, LXFA 1041/9N4, 100 mg/kg/day po Days 0-20; for Absolute body weight, Median / Relative body weight, Median: group median n 10; for Absolute tumor volume: (a*b*b)/2, Median / Relative tumor volume, Median: group median n 20; for Relative tumor volume: individual tumor
Excerpt: FIGS. 10-18 depict growth in lung tumor xenografts after dosing with GDC-0879.
The data are shown below, and in FIGS. 10-14 for Experiment H331 and FIGS. 15-18 for Experiment H327.

[1] = study day 3, individual animal, listed as G-026887
[2] = study day 7, individual animal, listed as G-026887
[3] = study day 10, individual animal, listed as G-026887
[4] = study day 14, individual animal, listed as G-026887

SMILES: OCCn1cc(-c2ccc3c(c2)CC/C3=N\O)c(-c2ccncc2)n1 [GDC-0879, 2-{4-[(1E)-1-(hydroxyimino)-2,3-dihydro-1H-inden-5-yl]-3-(pyridine-4-yl)-1H-pyrazol-1-yl}ethan-1-ol]
- Survival time (individual animal, listed as G-026887): >20 days (14×) and >21 days (6×)
- Absolute body weight, Median (study day 0): 25.1 g
- Relative body weight, Median (study day 0): 100.0%
- Absolute tumor volume: (a*b*b)/2, Median (study day 0): 88.5 mm3
- Relative tumor volume, Median (study day 0): 100.0%
- Relative body weight (study day 0, individual animal): 100.0%
- Absolute body weight (study day 0, individual animal, listed as G-026887): 25.4 g and 28.6 g and 24.5 g (2×) and 24.0 g and 25.1 g and 29.8 g and 31.5 g and 25.0 g and 23.6 g
- Relative tumor volume (study day 0): 100.0%
- Absolute body weight, Median (study day 3): 25.3 g
- Relative body weight, Median (study day 3): 99.2%
- Absolute tumor volume: (a*b*b)/2, Median (study day 3): 139.8 mm3
- Relative tumor volume, Median (study day 3): 165.4%
- Absolute body weight [1]: 25.6 g and 29.4 g and 24.6 g and 23.8 g and 23.6 g and 25.1 g and 29.3 g and 30.4 g and 25.4 g and 22.9 g
- Relative body weight [1]: 100.8% and 102.8% and 100.4% and 97.1% and 98.3% (2×) and 100.0% and 96.5% and 101.6% and 97.0%
- Relative tumor volume (study day 3, listed as G-026887): 193.9% and 208.9% and 154.7% and 187.7% and 202.6% and 157.6% and 110.0% and 160.2% and 138.1% and 194.2% and 138.9% and 172.0% and 178.9% and 185.0% and 157.3%
- Absolute body weight, Median (study day 7): 25.7 g
- Relative body weight, Median (study day 7): 101.4%
- Absolute tumor volume: (a*b*b)/2, Median (study day 7): 228.0 mm3
- Relative tumor volume, Median (study day 7): 258.8%
- Absolute body weight [2]: 25.9 g and 30.9 g and 25.2 g and 24.3 g and 24.4 g and 25.4 g and 29.8 g and 30.5 g and 26.3 g and 22.6 g
- Relative body weight [2]: 102.0% and 108.0% and 102.9% and 99.2% and 101.7% and 101.2% and 100.0% and 96.8% and 105.2% and 95.8%
- Relative tumor volume (study day 7, listed as G-026887): 452.1% and 329.8% and 300.6% and 260.9% and 376.4% and 256.7% and 340.1% and 324.4% and 232.6% and 248.9% and 223.2% and 293.8% and 281.8% and 209.2%
- Absolute body weight, Median (study day 10): 25.5 g
- Relative body weight, Median (study day 10): 100.5%
- Absolute tumor volume: (a*b*b)/2, Median (study day 10): 305.5 mm3
- Relative tumor volume, Median (study day 10): 388.4%
- Absolute body weight [3]: 25.5 g (2×) and 30.4 g and 24.9 g and 24.3 g and 23.8 g and 30.0 g and 30.6 g and 26.1 g and 22.0 g
- Relative body weight [3]: 100.4% and 106.3% and 101.6% (2×) and 99.2% (2×) and 100.7% and 97.1% and 104.4% and 93.2%
- Relative tumor volume (study day 10, listed as G-026887): 586.9% and 487.4% and 508.8% and 376.4% and 414.0% and 411.7% and 522.2% and 562.3% and 323.9% and 342.2% and 332.9% and 385.0% and 391.8% and 264.6%
- Absolute body weight, Median (study day 14): 25.6 g
- Relative body weight, Median (study day 14): 101.4%
- Absolute tumor volume: (a*b*b)/2, Median (study day 14): 541.3 mm3
- Relative tumor volume, Median (study day 14): 605.0%
- Absolute body weight [4]: 25.1 g and 30.7 g and 24.8 g and 24.6 g and 24.4 g and 26.1 g and 31.2 g and 30.4 g and 26.8 g and 22.7 g
- Relative body weight [4]: 98.8% and 107.3% and 101.2% and 100.4% and 101.7% and 104.0% and 104.7% and 96.5% and 107.2% and 96.2%
- Relative tumor volume (study day 14, listed as G-026887): 964.1% and 811.9% and 593.5% and 515.7% and 743.1% and 697.3% and 1076.6% and 1151.3% and 503.3% and 616.5% and 626.8% and 523.7% and 733.4% and 523.3%
- Absolute body weight, Median (study day 17): 25.7 g
- Relative body weight, Median (study day 17): 102.7%
- Absolute tumor volume: (a*b*b)/2, Median (study day 17): 789.5 mm3
